For assay [1], the system named is Watermelon (Citrullus lanatus) seeds. Put plainly: Germination of coated watermelon seeds in cocopeat. The class given is in vivo. The source says:
Watermelon (Citrullus lanatus) seeds were untreated or coated with a composition comprising 1.5 gram polyvinylpyrrolidone and 9 gram natamycin product (i.e. Delvocid®, a product comprising 50% (w/w) natamycin) per kg of seed. This composition was applied as described in Example 10.
(§1) Subsequently, the seeds were germinated in trays of sterile, buffered (i.e. with calcium nitrate to pH of 6.7) cocopeat, which is a stable growth medium commonly used and accepted for e.g. simulation of seed germination in the horticultural industry. The 50 seeds planted per treatment were subjected to an ambient temperature of minimally 1.4° C. during night time and maximally 26.9° C. during day time (average temperature 13.6° C.) for 19 days and continuously irrigated to field capacity. The average relative humidity during the trial was 72%. During the trial, the trays with cocopeat were irrigated 3 to 5 times per day. The trays were perforated at the bottom leading to direct removal of excess water. This way, the cocopeat could be kept at field capacity. After 15, 17 and 19 days, the germination percentage was determined according to ISTA standards (see Handbook International Rules for Seed Testing, Edition 2011, Chapter 5, pages 5-32, published by the International Seed Testing Association, Switzerland).

Assay [2] concerns Tomato (Solanum lycopersicum) seeds. Put plainly: Germination of drum primed, encrusted tomato seeds. The class given is in vivo. The note with it: after both 10 and 19 days of incubation. The method, then: as §1
Tomato (Solanum lycopersicum) seeds were primed (i.e. brought to same germination level) using drum priming. Subsequently, the primed tomato seeds were either not treated further or encrusted with composition 6 of Table 1 according to the method as described in Example 1. […] After 10 and 19 days, the germination percentage was determined using the ISTA method described in Example 11.

The values that follow come from patent publication US9295190B2, “Seed treatment composition” (DSM IP ASSETS B.V., priority 2011, dated 2016).

For `C[C@@H]1C/C=C/C=C/C=C/C=C/[C@H](O[C@@H]2O[C@H](C)[C@@H](O)[C@H](N)[C@@H]2O)C[C@@H]2O[C@](O)(C[C@@H](O)C[C@H]3O[C@@H]3/C=C/C(=O)O1)C[C@H](O)[C@H]2C(=O)O` [natamycin], the “Germination percentage in excess of the untreated seeds” value was 18% in assay [1] (after 15 days of incubation), 34% in assay [1] (after 17 days of incubation) and 38% in assay [1] (after 19 days of incubation). Moreover, the “Germination percentage in excess of the control seeds” value in assay [2] is given as 10%.
